Data on 31 compounds can be found in patent US8362008B2 (The University Of Edinburgh, priority 2007, dated 2013).

The assay addresses T1, human 11β-HSD1 enzyme (Homo sapiens, UniProt P28845).
T1 construct: stably transfected with a construct containing the full-length gene coding for the human 11β-HSD1 enzyme; expressed in transfected cells; host or cells: HEK293 (HEK293/11β-HSD1 cells)
Nature of the assay: Cellular in vitro 11β-HSD1 enzyme inhibition assay (SPA, HEK293/11β-HSD1 cells). The format is cell-based. The procedure, abridged: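 Stably transfected HEK293 cells expressing full-length human 11β-HSD1 were plated 24 h, then incubated with compound 2 h at 37 °C; cortisol formed was quantified by SPA with anti-cortisol antibody. Percent inhibition used no-cell (minimum) and no-compound (maximum) wells; IC50 from four-parameter logistic fit.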

Where [1] appears, read: HEK293, more than 1000 nM (1.0 μM) and less than or equal to 30 μM.
Setting [2] is: HEK293, less than or equal to 1000 nM (1 μM).

In general, IC50 refers to the point on the concentration scale where inhibition reaches its midpoint.

Molecules are shown by their SMILES. Some results are limits rather than exact numbers.

T1 sequence (P28845 whole entry): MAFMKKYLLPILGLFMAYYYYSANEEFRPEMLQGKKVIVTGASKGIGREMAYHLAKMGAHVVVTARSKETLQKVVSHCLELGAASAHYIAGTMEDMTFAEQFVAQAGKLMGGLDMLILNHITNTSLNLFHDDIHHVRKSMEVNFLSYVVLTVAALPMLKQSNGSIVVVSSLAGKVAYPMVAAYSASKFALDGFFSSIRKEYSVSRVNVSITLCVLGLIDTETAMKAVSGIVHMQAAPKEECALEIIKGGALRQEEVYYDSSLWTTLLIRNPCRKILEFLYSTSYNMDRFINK

Take `CC1(C)CCCN(C(=O)c2csc(C3=CCNCC3)c2)CC1` [CC-124]: the IC50 under setting [1] fell in the range of 1000 to 30000 nM.
In turn, `CC1(C)CCCCN(C(=O)c2csc(C3=CCNCC3)c2)C1` [CC-125] returned an IC50 under setting [1] of 1000 to 30000 nM.
On to `O=C(c1csc(C2=CCNCC2)c1)N1CCCC(F)(F)CC1` [CC-126], for which the IC50 under setting [2] is at most 1000 nM.
For `CS(=O)(=O)NCCC(=O)N1CCC(c2cc(C(=O)N3CCCCC3c3ccccc3)cs2)CC1` (stereo not shown) [CC-128], the IC50 under setting [1] lay within 1000 to 30000 nM.
The same measure, in the same setting: with `O=C(c1csc(C2CCN(c3nc4ccccc4o3)CC2)c1)N1CCCC2CCCCC21` (stereo not shown) [CC-129] the figure was 1000 to 30000 nM.
The same measure, in the same setting: in the case of `O=C(c1csc(C2CCNCC2)c1)N1CCC(F)(F)C2CCCCC21` (stereo not shown) [CC-131] it was 1000 to 30000 nM.
Take `CNC(=O)N1CCC(c2cc(C(=O)N3CCCCC3c3ccccc3)cs2)CC1` (stereo not shown) [CC-132]: the concentration for half-maximal inhibition (IC50) under setting [2] is at most 1000 nM.
Still for that read-out and setting: with `O=C(Cc1ccccn1)N1CCC(c2cc(C(=O)N3CCCC4CCCCC43)cs2)CC1` (stereo not shown) [CC-133] the figure was at most 1000 nM; with `O=C(Cc1cccnc1)N1CCC(c2cc(C(=O)N3CCCC4CCCCC43)cs2)CC1` (stereo not shown) [CC-134], at most 1000 nM; with `O=C(c1csc(C2CCSCC2)c1)N1CCCC2CCCCC21` (stereo not shown) [CC-136], at most 1000 nM.
For the compound `CC1(C)CCCN(C(=O)c2csc(C3CCN(C(C)(C)C(N)=O)CC3)c2)CC1` [CC-137], under setting [2], the IC50 is at most 1000 nM.
As to `CC1(C)CCCN(C(=O)c2csc(C3CCN(CC(N)=O)CC3)c2)CC1` [CC-139], the IC50 under setting [1] is 1000 to 30000 nM.
`NC(=O)N1CCC(c2cc(C(=O)N3CCCC4CCCCC43)cs2)CC1` (stereo not shown) [CC-144] had an IC50 under setting [2] of at most 1000 nM.
On the same count and under the same terms, with `CS(=O)(=O)NCC(=O)N1CCC(c2cc(C(=O)N3CCCC4CCCCC43)cs2)CC1` (stereo not shown) [CC-148] the figure was at most 1000 nM.
The same measure, in the same setting: with `O=C(CCc1ccncc1)N1CCC(c2cc(C(=O)N3CCCC4CCCCC43)cs2)CC1` (stereo not shown) [CC-149] the figure was at most 1000 nM.
Same read-out and setting: in the case of `O=C(CCc1c[nH]cn1)N1CCC(c2cc(C(=O)N3CCCC4CCCCC43)cs2)CC1` (stereo not shown) [CC-151] it was at most 1000 nM.
Turning to `O=C(c1csc(C2CCN(CC(O)CO)CC2)c1)N1CCCC2CCCCC21` (stereo not shown) [CC-153], the 50% inhibitory concentration (IC50) under setting [1] was in the range of 1000 to 30000 nM.
Consider `Cn1ccnc1CN1CCC(c2cc(C(=O)N3CCCC4CCCCC43)cs2)CC1` (stereo not shown) [CC-154], for which the IC50 under setting [2] is at most 1000 nM.
For `O=C1CCCN1CCCN1CCC(c2cc(C(=O)N3CCCC4CCCCC43)cs2)CC1` (stereo not drawn) [CC-156, cis-{1-(3-{4-[4-(Octahydro-quinoline-1-carbonyl)-thiophen-2-yl]-piperidin-1-yl}-propyl)-pyrrolidin-2-one], the concentration for half-maximal inhibition (IC50) under setting [1] fell in the range of 1000 to 30000 nM.
`O=C(NCCCO)N1CCC(c2cc(C(=O)N3CCCC4CCCCC43)cs2)CC1` (stereo not shown) [CC-161]: the IC50 under setting [2] was at most 1000 nM.
`CN(C)CCNC(=O)N1CCC(c2cc(C(=O)N3CCCC4CCCCC43)cs2)CC1` (stereo not shown) [CC-162] displayed an IC50 under setting [1] of 1000 to 30000 nM.
`COCCNC(=O)N1CCC(c2cc(C(=O)N3CCCC4CCCCC43)cs2)CC1` (stereo not shown) [CC-164] came in with a concentration for half-maximal inhibition (IC50) under setting [2] of at most 1000 nM.
Still for that read-out and setting: with `O=C(NCc1ccccn1)N1CCC(c2cc(C(=O)N3CCCC4CCCCC43)cs2)CC1` (stereo not shown) [CC-166] the figure was at most 1000 nM.
On the same count and under the same terms, with `CC(C)(C(=O)N1CCCC1)N1CCC(c2cc(C(=O)N3CCCC4CCCCC43)cs2)CC1` (stereo not shown) [CC-170] the figure was at most 1000 nM; with `CNC(=O)C(C)(C)N1CCC(c2cc(C(=O)N3CCCC4CCCCC43)cs2)CC1` (stereo not shown) [CC-171], at most 1000 nM.
On the same count and under the same terms, with `O=C(NCCO)N1CCC(c2cc(C(=O)N3CCCC4CCCCC43)cs2)CC1` (stereo not shown) [CC-173] the figure was at most 1000 nM.
`CC(C)(C(N)=O)N1CCC(c2cc(C(=O)N3CCCC4CCCCC43)cs2)CC1` (stereo not shown) [CC-174]: under setting [2], the IC50 is at most 1000 nM.
Same read-out and setting: in the case of `CC1(C)CCCN(C(=O)c2csc(C3CCCCC3)c2)C1` [DD-001] it was at most 1000 nM.
`O=C(c1csc(C2CCCCC2)c1)N1CCCC2CCCCC21` (stereo not shown) [DD-003] gave a 50% inhibitory concentration (IC50) under setting [1] of 1000 to 30000 nM.
In the case of `CC1(C)CC2CC(C)(CN2C(=O)c2csc(C3CCCCC3)c2)C1` (stereo not shown) [DD-005], the IC50 under setting [2] was at most 1000 nM.
In the case of `O=C(c1csc(C2CCCCC2)c1)N1CCCC2(CCCCC2)C1` [DD-006], under setting [1], the IC50 lay within 1000 to 30000 nM.
